Reference: patent US20070065485A1, “Therapeutic delivery of carbon monoxide” (priority 2003, published 2007)
Like-named read-outs stand apart in the source and are kept apart here.

Columns and labels:
deoxymyoglobin (Mb) [1] = conditions: cited from earlier work
[2] = test system: aortic rings pre-contracted with phenylephrine; experiment: Isolated aortic ring preparation: vessel relaxation in rings pre-contracted with phenylephrine (3 μM); format: cell-based, male Lewis rats; conditions: for percentage of relaxation compared to control: after 10 min
Method: Transverse ring sections of thoracic aorta were isolated from male Lewis rats and suspended under a 2 g tension in an organ bath containing oxygenated Krebs-Henseleit buffer at 37° C. in a manner previously described^10. The relaxation response to CORM-A1 (40, 80 and 160 μM) was assessed in aortic rings pre-contracted with phenylephrine (3 μM). […] Experiments were also conducted by comparing the effect of CORM-A1 and CORM-3 on vessel relaxation over time.

deoxymyoglobin (Mb) [3] = experiment: Detection of CO release: conversion of deoxymyoglobin (Mb) to carbonmonoxy myoglobin (MbCO); format: physicochemical
Method: The release of CO from CORM-A1 was assessed spectrophotometrically by measuring the conversion of deoxymyoglobin (Mb) to carbonmonoxy myoglobin (MbCO) by a method previously described^23. The amount of MbCO formed was quantified by measuring the absorbance at 540 nm (extinction coefficient=[…]) over time at 37° C. Myoglobin solutions (approximately 50 μmol/L final concentration) were prepared fresh by dissolving the protein in 0.04 M phosphate buffer (pH=7.4). Sodium dithionite (0.1%) was added to convert the oxidized myoglobin to its reduced form prior to each reading. Some experiments were also conducted using Mb at pH=5.5 or at room temperature (RT) in order to examine the kinetic of CO release from CORM-A1 under different chemical and physical conditions.
The amount of MbCO formed after addition of CORM-A1 to the Mb solution can be quantified by measuring the absorbance at 540 nm knowing the extinction coefficient for MbCO (ε=[…]). CORM-A1 at three different concentrations was added to a solution containing Mb at room temperature and the formed MbCO was calculated over time.

[4] = test system: mean arterial pressure (MAP); experiment: Effect of CORM-A1 and YC-1 on mean arterial pressure (MAP) in anaesthetised rats; format: in vivo, Lewis rats
Method: Lewis rats (280-350 g) were anaesthetised by intramuscular injection of 1 ml/kg Hypnorm. Specially designed femoral artery and venous catheters were then surgically implanted and mean arterial pressure (MAP) monitored continuously using a polygraph recorder in a manner previously described. The effect of CORM-A1 on mean arterial pressure (MAP) over time was assessed following an intravenous (i.v.) injection of 50 μmol kg^−1. Similar experiments were conducted by administering YC-1 (1.2 μmol kg^−1, i.v.) to animals 5 min prior to the bolus addition of CORM-A1. Control experiments using YC-1 alone were also performed.
Femoral artery and venous catheters were surgically implanted into anesthetized Lewis rats and blood pressure continuously monitored as previously described by us. The effect of CORM-A1 and YC-1 on mean arterial pressure (MAP) in vivo is represented in FIG. 11. The compounds were injected intravenously as a bolus at a final concentration of 50 μmoles/kg for CORM-A1 and 1.2 μmol kg^−1 for YC-1. When the two compounds were given in combination, YC-1 was administered 10 min prior to CORM-A1 injection. As shown, CORM-A1 produced a gradual and sustained decrease in MAP over time; for instance, 60 min after CORM-A1 injection MAP decreased by 6.3±1.5 mmHg from the initial baseline value. Injection with YC-1 alone also produced an effect on blood pressure; however, the decrease in MAP was only transient, reaching a maximum of 5.5±1.0 mmHg after 10 min and returning to basal levels 50 min after injection. […] The data are represented as the mean±s.e.m. of 5 independent experiments for each group. *P<0.05 vs. baseline (−10 min); ^⇑P<0.05 vs. CORM-A1 alone or YC-1 alone.

[5] = distilled water at basic pH; cited from earlier work
[6] = test system: aortic rings pre-contracted with phenylephrine; experiment: Isolated aortic ring preparation: relaxation response to CORM-A1 in presence or absence of YC-1, phenylephrine 1 μmol/L; format: cell-based, male Lewis rats
Method: Transverse ring sections of thoracic aorta were isolated from male Lewis rats and suspended under a 2 g tension in an organ bath containing oxygenated Krebs-Henseleit buffer at 37° C. in a manner previously described. […] YC-1 was added to the isolated rings 30 min prior to contraction with phenylephrine.

NCC(=O)O.[CH+]=O.[CH+]=O.[CH+]=O.[Cl][Ru] [CORM-3, Tricarbonylchloro(glycinato)ruthenium(II)]
time in which CO is liberated to Mb (deoxymyoglobin (Mb) [1]; added to a solution containing myoglobin (Mb), 1 mole CO per mole compound): 1 to 2 min
CO liberated per mole of compound (deoxymyoglobin (Mb) [1]; added to a solution containing myoglobin (Mb), within 1-2 min): 1 mole of CO per mole of compound
time of liberation of CO to Mb or in biological systems (deoxymyoglobin (Mb) [1]; from recent works): approximately 5 min
time after addition at which the stated relaxation was reached ([2]; 80 μM): 4 to 5 min
relaxation ([2]; 80 μM, within 4-5 min): 75%

[BH3-]C(=O)[O-].[Na+].[Na+] [CORM-A1, Disodium boranocarbonate]
percentage of relaxation compared to control ([2]; 40 μM): 21.0±2.3%
time after addition at which the stated relaxation was reached ([2]; 80 μM): 33 min
vasorelaxation (in words) ([2]; 80 μM): gradual and profound vasorelaxation
maximal vasorelaxation ([2]; 80 μM, 33 min following addition): 96%
percentage of relaxation compared to control ([2]; 80 μM): 40.2±3.4%
percentage of relaxation compared to control ([2]; 160 μM): 74.9±1.8%
calculated Ymax of MbCO formed (deoxymyoglobin (Mb) [3]; 15.6 μM CORM-A1, room temperature): 16.7±1.2
calculated Ymax of MbCO formed (deoxymyoglobin (Mb) [3]; 31.1 μM CORM-A1, room temperature): 33.1±1.4
calculated Ymax of MbCO formed (deoxymyoglobin (Mb) [3]; 46.7 μM CORM-A1, room temperature): 48.2±2.5
conversion of Mb to MbCO (deoxymyoglobin (Mb) [3]; 60 μM, pH=7.4, 37° C., MbCO spectrum after 210 min incubation): gradual formation of MbCO over time
CO liberated per mole of compound (deoxymyoglobin (Mb) [3]; aqueous solution, room temperature, reaction to completion): one mole of CO per mole of compound
release of CO at physiological pH (deoxymyoglobin (Mb) [3]; physiological pH): 18.4 min
decrease in MAP from initial baseline ([4]; 50 μmoles/kg i.v. bolus, 60 min after injection): 6.3±1.5 mmHg
decrease in MAP ([4]; CORM-A1 50 μmoles/kg i.v. in combination with YC-1 1.2 μmol kg^−1 given 10 min prior, after 10 min): 16.1±5.6 mmHg
stability in water [5]: relatively stable
relaxation ([6]; 1 μM CORM-A1, vessels pre-treated with YC-1): 35±9.8%
relaxation ([6]; 10 μM CORM-A1, vessels pre-treated with YC-1): 51±3.3%
relaxation ([6]; 20 μM after pre-treatment of vessels with YC-1 (1 μM)): 61±6.2%
relaxation ([6]; 20 μM alone, after 20 min): 13±4.9%

[BH4-].[Na+] [NaBH4, Sodium borohydride, reference compound]
vasorelaxation (in words) ([2]; 80 μM): totally ineffective

OCc1ccc(-c2nn(Cc3ccccc3)c3ccccc23)o1 [YC-1, 3-(5′-hydroxymethyl-2′-furyl)-1-benzyl-indazole, reference compound]
maximum decrease in MAP ([4]; YC-1 alone 1.2 μmol kg^−1 i.v., after 10 min): 5.5±1.0 mmHg
time to return of MAP to basal levels ([4]; YC-1 alone 1.2 μmol kg^−1 i.v., after injection): 50 min
relaxation ([6]; YC-1 alone (1 μM), after 20 min): 2.8±1.1%
